The structures appear in SMILES notation. Read-outs that look alike come from different tables or passages of the source.

The results in this text go back to patent publication US12187721B2, “Protein tyrosine phosphatase inhibitors” (Array BioPharma Inc., priority 2018, dated 2025).

This experiment concerns the target T1, full-length SHP2 (His6-tagged SHP2(2-527)) (Homo sapiens, UniProt Q06124).
T1 construct: His6-tagged SHP2(2-527); His6; made in house; host or cells: E. coli
Kind of experiment: SHP2 Enzymatic Assay (fluorescence intensity kinetic assay, DiFMUP hydrolysis). In kind it is biochemical. On the procedure: A fluorescence intensity kinetic assay was configured for full-length SHP2 that monitors the amount of 6,8-difluoro-7-hydroxy-4-methylcoumarin (“DiFMU”) formed upon hydrolysis of 6,8-difluoro-4-methylumbelliferyl phosphate (“DiFMUP”) by SHP2. Assay mixtures consisted of 25 mM K^+HEPES, pH 7.4, 0.01% Triton X-100, 1 mM DTT, 50 mM KCl, 100 μg/mL bovine γ-globulin, 50 μM DiFMUP, 1 μM SHP2 activating peptide (LN(pY)IDLDLV(dPEG8)LST(pY)ASINFQK-amide), 1 nM full-length SHP2 (His6-tagged SHP2(2-527), recombinantly expressed in E. coli and purified in-house) and 2% dimethylsulfoxide (“DMSO”) (from compound). […] The assay was run in 384-well, polystyrene, low-volume, non-treated, black microtiter plates (Costar 4511) in a final volume of 20 μL. Low control wells lacked enzyme. The assays were initiated by the addition of a mixture of SHP2 and the activating peptide, and following a 15 second mix on an orbital shaker, were read in kinetic mode for 15 minutes (30 seconds/cycle) at ambient temperature on a PerkinElmer EnVision microplate reader (λEx=355 nm, λEm=460 nm). Initial velocities (slopes of the tangents at t=0) were estimated from exponential fits to the slightly nonlinear progress curves and then were converted to percent of control (“POC”) using the following equation:
[formula] • Where: Xmax Average Uninhibited Controls • Xmin Average Background A 4-parameter logistic model was the fit to the POC data for each compound. From that fit, the IC50 was estimated and is defined as the concentration of compound at which the curve crosses 50 POC.
The reported IC50 in Table 1 may be from a single assay or the mean of multiple assays.

The mark [1] stands for this setting: full-length SHP2 with 1 μM activating peptide, 50 μM DiFMUP, single assay or mean of multiple assays, read-out: Biological Example 1 IC50.

T1 sequence (Q06124 2-527): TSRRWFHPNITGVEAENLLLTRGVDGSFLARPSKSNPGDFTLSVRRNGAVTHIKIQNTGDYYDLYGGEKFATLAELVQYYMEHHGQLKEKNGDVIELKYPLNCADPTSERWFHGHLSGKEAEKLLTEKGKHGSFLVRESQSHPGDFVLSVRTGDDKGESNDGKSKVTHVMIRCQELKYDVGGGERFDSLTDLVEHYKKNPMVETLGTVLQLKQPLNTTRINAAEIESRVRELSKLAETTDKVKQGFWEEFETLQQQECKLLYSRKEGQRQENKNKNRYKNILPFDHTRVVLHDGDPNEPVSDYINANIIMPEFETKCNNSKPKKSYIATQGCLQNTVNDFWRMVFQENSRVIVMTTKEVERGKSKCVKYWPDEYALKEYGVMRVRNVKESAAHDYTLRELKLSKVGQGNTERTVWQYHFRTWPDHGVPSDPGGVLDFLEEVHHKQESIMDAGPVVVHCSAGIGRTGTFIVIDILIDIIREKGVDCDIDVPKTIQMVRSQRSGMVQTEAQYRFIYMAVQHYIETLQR

The term IC50 denotes the concentration that gives 50% inhibition. `C[C@@]1(N)CCN(c2cnc3nc(-c4cccc(Cl)c4Cl)ccc3n2)C1` [Example 32, (R)-1-(6-(2,3-dichlorophenyl)pyrido[2,3-b]pyrazin-2-yl)-3-methylpyrrolidin-3-amine] returned an IC50 of 420 nM. On the same count and under the same terms, the value for `Cn1ncc2cccc(Sc3ccc4nc(N5CCC(C)(N)CC5)cnc4n3)c21` [Example 34, 4-methyl-1-(6-((1-methyl-1H-indazol-7-yl)thio)pyrido[2,3-b]pyrazin-2-yl)piperidin-4-amine] was 2600 nM. Turning to `CC1(N)CCN(c2cnc3nc(Sc4cccc(C#N)c4Cl)ccc3n2)CC1` [Example 35, 3-((2-(4-amino-4-methylpiperidin-1-yl)pyrido[2,3-b]pyrazin-6-yl)thio)-2-chlorobenzonitrile], the IC50 under setting [1] worked out at 270 nM. The same measure, in the same setting: the value for `CC1(N)CCN(c2cnc3nc(Sc4cccn5nccc45)ccc3n2)CC1` [Example 36, 4-methyl-1-(6-(pyrazolo[1,5-a]pyridin-4-ylthio)pyrido[2,3-b]pyrazin-2-yl)piperidin-4-amine] was 400 nM. In turn, `COc1cccc(-c2ccc3nc(N4CCC(C)(N)CC4)cnc3n2)c1Cl` [Example 37, 1-(6-(2-chloro-3-methoxyphenyl)pyrido[2,3-b]pyrazin-2-yl)-4-methylpiperidin-4-amine] had an IC50 of 1100 nM. For the compound `CC1(N)CCN(c2cnc3nc(-c4cccc5ccccc45)ccc3n2)CC1` [Example 38, 4-methyl-1-(6-(naphthalen-1-yl)pyrido[2,3-b]pyrazin-2-yl)piperidin-4-amine], the 50% inhibitory concentration (IC50) under setting [1] was found to be 290 nM. For `C[C@@H]1OCC2(CCN(c3cnc4nc(-c5cccc(Cl)c5Cl)ccc4n3)CC2)[C@@H]1N` [Example 39, (3S,4S)-8-(6-(2,3-dichlorophenyl)pyrido[2,3-b]pyrazin-2-yl)-3-methyl-2-oxa-8-azaspiro[4.5]decan-4-amine], the midpoint of inhibition, the IC50, lay at 320 nM. Same read-out and setting: the value for `CC1(N)CCN(c2cnc3nc(Sc4nccn5nccc45)ccc3n2)CC1` [Example 40, 4-methyl-1-(6-(pyrazolo[1,5-a]pyrazin-4-ylthio)pyrido[2,3-b]pyrazin-2-yl)piperidin-4-amine] was 440 nM; that for `NCC1(O)CCN(c2cnc3nc(Sc4ccnc(N)c4Cl)ccc3n2)CC1` [Example 42, 1-(6-((2-amino-3-chloropyridin-4-yl)thio)pyrido[2,3-b]pyrazin-2-yl)-4-(aminomethyl)piperidin-4-ol] was 95 nM. On the same count and under the same terms, the same measure for `Nc1nccc(Sc2ccc3nc(N4CCC(N)(CO)CC4)cnc3n2)c1Cl` [Example 43, (4-amino-1-(6-((2-amino-3-chloropyridin-4-yl)thio)pyrido[2,3-b]pyrazin-2-yl)piperidin-4-yl)methanol]: 100 nM; for `COc1nccc(Sc2ccc3nc(N4CCC(N)(CO)CC4)cnc3n2)c1Cl` [Example 44, (4-amino-1-(6-((3-chloro-2-methoxypyridin-4-yl)thio)pyrido[2,3-b]pyrazin-2-yl)piperidin-4-yl)methanol]: 120 nM. In turn, `NC1(CO)CCN(c2cnc3nc(Sc4ccnc(N5CCCC5)c4Cl)ccc3n2)CC1` [Example 45, (4-amino-1-(6-((3-chloro-2-(pyrrolidin-1-yl)pyridin-4-yl)thio)pyrido[2,3-b]pyrazin-2-yl)piperidin-4-yl)methanol] had an IC50 of 92 nM. `CC1(N)CCN(c2cnc3nc(-c4ccnc(N5CC[C@@H](O)C5)c4Cl)ccc3n2)CC1` [Example 46, (R)-1-(4-(2-(4-amino-4-methylpiperidin-1-yl)pyrido[2,3-b]pyrazin-6-yl)-3-chloropyridin-2-yl)pyrrolidin-3-ol] yielded an IC50 of 2900 nM. Consider `CC1(N)CCN(c2cnc3nc(-c4ccnc(NCCO)c4Cl)ccc3n2)CC1` [Example 47, 2-((4-(2-(4-amino-4-methylpiperidin-1-yl)pyrido[2,3-b]pyrazin-6-yl)-3-chloropyridin-2-yl)amino)ethan-1-ol], for which the midpoint of inhibition, the IC50, lay at 6000 nM.

As for `CC1(N)CCN(c2cnc3nc(Sc4cccc5ccncc45)ccc3n2)CC1` [Example 48, 1-(6-(isoquinolin-8-ylthio)pyrido[2,3-b]pyrazin-2-yl)-4-methylpiperidin-4-amine], inhibition was half-maximal at 460 nM (IC50). The same measure, in the same setting: the same measure for `CC1(N)CCN(c2cnc3nc(Sc4ccnc(N5CCCC5)c4Cl)ccc3n2)CC1` [Example 49, 1-(6-((3-chloro-2-(pyrrolidin-1-yl)pyridin-4-yl)thio)pyrido[2,3-b]pyrazin-2-yl)-4-methylpiperidin-4-amine]: 63 nM; for `CC1(N)CCN(c2cnc3nc(-c4cccc5ccncc45)ccc3n2)CC1` [Example 50, 1-(6-(isoquinolin-8-yl)pyrido[2,3-b]pyrazin-2-yl)-4-methylpiperidin-4-amine]: 9000 nM.

As for `Nc1nccc(Sc2ccc3nc(N4CCC[C@H](N)CC4)cnc3n2)c1Cl` [Example 51, (S)-1-(6-((2-amino-3-chloropyridin-4-yl)thio)pyrido[2,3-b]pyrazin-2-yl)azepan-4-amine], the midpoint of inhibition, the IC50, lay at 65 nM. For the compound `Nc1nccc(Sc2ccc3nc(N4[C@H]5CC[C@H]4CC(N)C5)cnc3n2)c1Cl` (stereo partly drawn) [Example 52, (1R,3s,5S)-8-(6-((2-amino-3-chloropyridin-4-yl)thio)pyrido[2,3-b]pyrazin-2-yl)-8-azabicyclo[3.2.1]octan-3-amine], under setting [1], the IC50 was determined as 70 nM. In turn, `COCC1(N)CCN(c2cnc3nc(Sc4ccnc(N)c4Cl)ccc3n2)CC1` [Example 53, 4-((2-(4-amino-4-(methoxymethyl)piperidin-1-yl)pyrido[2,3-b]pyrazin-6-yl)thio)-3-chloropyridin-2-amine] registered an IC50 of 123 nM. On the same count and under the same terms, the same measure for `Nc1nccc(Sc2ccc3nc(N4CCC5(CC4)CNC5)cnc3n2)c1Cl` [Example 54, 4-((2-(2,7-diazaspiro[3.5]nonan-7-yl)pyrido[2,3-b]pyrazin-6-yl)thio)-3-chloropyridin-2-amine]: 60 nM; for `Nc1nccc(Sc2ccc3nc(N4CCC5(CCN5)CC4)cnc3n2)c1Cl` [Example 55, 4-((2-(1,7-diazaspiro[3.5]nonan-7-yl)pyrido[2,3-b]pyrazin-6-yl)thio)-3-chloropyridin-2-amine]: 121 nM.

In turn, `Nc1nccc(Sc2ccc3nc(N4[C@@H]5CCC[C@H]4CC(N)C5)cnc3n2)c1Cl` (stereo partly drawn) [Example 56, (1R,5S)-9-(6-((2-amino-3-chloropyridin-4-yl)thio)pyrido[2,3-b]pyrazin-2-yl)-9-azabicyclo[3.3.1]nonan-3-amine] returned an IC50 of 42 nM. The compound `Nc1nccc(Sc2ccc3nc(N4C[C@H]5C[C@H](N)[C@@H](C4)O5)cnc3n2)c1Cl` [Example 58, (1R,5R,6S)-3-(6-((2-amino-3-chloropyridin-4-yl)thio)pyrido[2,3-b]pyrazin-2-yl)-8-oxa-3-azabicyclo[3.2.1]octan-6-amine] had an IC50 of 153 nM.

As to `N[C@H]1C[C@@H]2CN(c3cnc4nc(Sc5cccc(Cl)c5Cl)ccc4n3)C[C@H]1O2` [Example 59, (1R,5R,6S)-3-(6-((2,3-dichlorophenyl)thio)pyrido[2,3-b]pyrazin-2-yl)-8-oxa-3-azabicyclo[3.2.1]octan-6-amine], the IC50 was 405 nM. Same read-out and setting: the same measure for `CC(C)(N)C1CCN(c2cnc3nc(Sc4ccnc(N)c4Cl)ccc3n2)CC1` [Example 60, 4-((2-(4-(2-aminopropan-2-yl)piperidin-1-yl)pyrido[2,3-b]pyrazin-6-yl)thio)-3-chloropyridin-2-amine]: 245 nM. Still for that read-out and setting: the value for `CC(C)(N)C1CCN(c2cnc3nc(Sc4cccc(Cl)c4Cl)ccc3n2)CC1` [Example 61, 2-(1-(6-((2,3-dichlorophenyl)thio)pyrido[2,3-b]pyrazin-2-yl)piperidin-4-yl)propan-2-amine] was 1570 nM; that for `NCC1CN(c2cnc3nc(Sc4ccnc(N)c4Cl)ccc3n2)CCO1` (centres unmarked) [Example 62, 4-((2-(2-(aminomethyl)morpholino)pyrido[2,3-b]pyrazin-6-yl)thio)-3-chloropyridin-2-amine] was 165 nM. `NCC1CN(c2cnc3nc(Sc4cccc(Cl)c4Cl)ccc3n2)CCO1` (centres unmarked) [Example 63, (4-(6-((2,3-dichlorophenyl)thio)pyrido[2,3-b]pyrazin-2-yl)morpholin-2-yl)methanamine] had an IC50 of 280 nM. In the case of `NCC1CN(c2cnc3nc(-c4cccc(Cl)c4Cl)ccc3n2)CCO1` (centres unmarked) [Example 64, (4-(6-(2,3-dichlorophenyl)pyrido[2,3-b]pyrazin-2-yl)morpholin-2-yl)methanamine], the IC50 worked out at 730 nM. Compound `NCC1CN(c2cnc3nc(-c4ccccc4)ccc3n2)CCO1` (centres unmarked) [Example 65, (4-(6-phenylpyrido[2,3-b]pyrazin-2-yl)morpholin-2-yl)methanamine] showed an IC50 of 5760 nM.

The compound `C[C@@H]1OCC2(CCN(c3cnc4nc(-c5ccccc5)ccc4n3)CC2)[C@@H]1N` [Example 66, (3S,4S)-3-methyl-8-(6-phenylpyrido[2,3-b]pyrazin-2-yl)-2-oxa-8-azaspiro[4.5]decan-4-amine] showed an IC50 of 2750 nM.
